The target of assay [1] is T1, Ras farnesyl transferase (Rattus norvegicus, UniProt Q02293+Q04631).
T1 construct: endogenous in cells; host or cells: Rat2 fibroblasts transformed with C-Harvey-Ras, or with H-Ras carrying the K-Ras C-terminal polybasic lysine domain
Nature of the assay: in vivo (cellular) Ras farnesyl transferase inhibitory activity, Rat2 cells expressing C-Harvey-Ras. It counts as cell-based. The method, then:
(§1) In the present experiment, Rat2 cell line which expresses C-Harvey-Ras protein having transforming activity and Rat2 cell line(Korean patent application No. 97-14409) which is transformed with fused protein of H-Ras substituted with polybasic lysine domain at C-terminus of K-Ras were used. The experiment was performed by the modified Declue's method(Declue. J. E. et al., Cancer Research, 1991, 51, 712). Hereinafter, the experimental method will be described in more detail.
(§2) 3×10^5 cells of transformed Rat2 fibroblast cell line were sprayed on 60 mm cell cultivation dish and cultivated for 48 hours in a cell incubator at 37° C. and after 50% or more of density was reached, it was treated with the test compounds. The compound according to the present invention dissolved in dimethylsulfoxide(DMSO) was used. 1% concentration of dimethylsulfoxide was used in both control and test groups. After 4 hours from the treatment with the compound, methionine labeled with 150 μCi of radioactive isotope [^35S] per 1 ml of medium was added and after cultivating for 20 hours, the cells were washed with physiological saline water. The cells were lysed using 1 ml of cold cell lysis buffer solution(50 mM of Sodium HEPES buffer solution containing 5 mM of magnesium chloride, 1 mM of DTT, 1% NP 40, 1 mM of EDTA, 1 mM of PMSF, 2 μM of leupeptin, 2 μM of pepstatin A and 2 μM of antipain) and the supernatant wherein the cells were lysed was obtained by high-velocity centrifugation of 12,000 g×5 minutes. The amount of radioisotope in the supernatant was measured and standardized to obtain a quantitative result in immunoprecipitation reaction and then, Y13-259, a monoclonal antiboby specifically binding to Ras protein(Furth, M. E. et al., J. Virol, 1982, 43, 294) was added and reacted for 15 hours at 4° C. Protein A(combined with goat anti-murine imunoglobulin antibody)-agarose suspension was added to the solution and reacted for 1 hour at 4° C. and then, to remove the unspecific binding product, immunoprecipitates were washed with a buffer solution (50 mM Tris chloride buffer solution containing 50 mM of sodium chloride, 0.5% of sodium dioxycholate, 0.5% of NP 40 and 0.1% of SDS). The precipitates were added to a buffer solution for electrophoresis and boiled and then, electrophoresis was performed using 13.5% of SDS polyacrylamide gel. After electrophoresis, the gel was fixed and dried. Then, the gel was exposed to X-ray film, developed and printed. From the result of the experiment, intensities of band of protein combined with or without farnesyl of Ras protein were measured, and the concentration of the test compound inhibiting 50% of farnesyl binding was defined as CIC50, an in vivo Ras farnesyl transferase inhibitory activity.

Assay [2] concerns the target T1, Ras farnesyl transferase. Nature of the assay: in vivo (cellular) Ras farnesyl transferase inhibitory activity, Rat2 cells transformed with H-Ras fused with polybasic lysine domain of K-Ras. It counts as cell-based. The method, then: as §1, §2
The target of assay [3] is T2, Ras farnesyl transferase (Homo sapiens, UniProt P49354+P49356).
T2 construct: made in house
Description: in vitro inhibitory activity for Ras farnesyl transferase, K-Ras substrate. It counts as biochemical. The protocol:
In the present experiment, Ras farnesyl transferase produced by genetic recombination techniques according to the improved Pompliano's method (Pompliano et al., Biochemistry, 1992, 31, 3800) was used, […] Appln. No. 97-14409 was used after it has been purified according to the known method(see, Chung et al., Biochimica et Biophysica Acta, 1992, 278, 1129).
(§3) The enzyme reaction was performed in 50 μl of 50 mM Soduam HEPES buffer solution containing 25 mM of potassium chloride, 25 mM of magnesium chloride, 10 mM of DTT and 50 μM of zinc chloride. 1.5 μM of Ras substrate protein, 0.15 μM of tritium-farnesylpyrophosphate and 4.5 nM of farnesyl transferase were used.
(§4) More specifically, in the initial step, farnesyl transferase was added to the above buffer solution, reaction was maintained for 30 minutes at 37° C. and then the reaction was stopped by adding 1 ml of ethanol solution containing 1M HCl. The formed precipitates were adsorbed to GF/B filter using Hopper harvestor(Hopper #FH 225V) for filter-binding, washed with ethanol, and then radioactivity of the dried filter was measured using LKB β counter. Enzyme titer was measured in the unsaturated state of substrate where the concentrations of Ras substrate protein and farnesyl transferase have quantitative relationship. The compound according to the present invention dissolved in dimethyl sulfoxide(DMSO) was added to the reaction solution in an amount of less than 5% of the total reaction solution, and then the enzyme inhibitory activity thereof was measured. The enzyme inhibitory activity was represented by percentage of the amount of farnesyl incorporated into the Ras substrate protein in the presence of the test compound to that in the absence of the test compound. IC50 of the test compound was defined as the concentration at which 50% of the enzyme activity was inhibited.

Assay [4] concerns the target T2, Ras farnesyl transferase. Description: in vitro inhibitory activity for Ras farnesyl transferase, H-Ras substrate. It is filed as biochemical. The method, then: In the present experiment, Ras farnesyl transferase produced by genetic recombination techniques according to the improved Pompliano's method (Pompliano et al., Biochemistry, 1992, 31, 3800) was used, and Ras substrate(Ras-CVLS) protein described in Korean Patent Appln. No. 97-14409 was used after it has been purified according to the known method(see, Chung et al., Biochimica et Biophysica Acta, 1992, 278, 1129).
as §3, §4

Where [5] appears, read: Rat2 cell line expressing C-Harvey-Ras, concentration inhibiting 50% of farnesyl binding of Ras protein, read-out: H-Ras CIC50.
The mark [6] stands for this setting: Rat2 cell line transformed with H-Ras substituted with polybasic lysine domain at C-terminus of K-Ras, concentration inhibiting 50% of farnesyl binding, read-out: K-Ras CIC50.
[7] abbreviates: recombinant Ras farnesyl transferase, K-Ras substrate, read-out: K-Ras IC50.
Where [8] appears, read: recombinant Ras farnesyl transferase, H-Ras substrate, tritium-farnesylpyrophosphate, 30 minutes at 37° C., read-out: H-Ras IC50.

SMILES strings stand for the structures.

In the case of `COCCN(C)C(=O)c1cn(Cc2cncn2CC2CCN(C(=O)N(C)Cc3ccccc3)CC2)cc1-c1cccc2ccccc12` [Compound 30], the IC50 at Ras farnesyl transferase [1] (setting [5]) is 10 to 100 nM; at Ras farnesyl transferase [2] (setting [6]) it was 1 to 10 µM; on Ras farnesyl transferase [3] (setting [7]) it was 6 nM; at Ras farnesyl transferase [4] (setting [8]), 2.5 nM.
For `COCCN(C)C(=O)c1cn(Cc2cncn2CC2CCN(C(=O)N3CCCc4ccccc43)CC2)cc1-c1cccc2ccccc12` [Compound 31, 3-[N-(2-Methoxyethyl)-N-methyl]carbamoyl-4-(naphthalen-1-yl)-1-{1-[1-(1,2,3,4-tetrahydroquinolin-1-ylcarbonyl)piperidin-4-ylmethyl]-1H-imidazol-5-ylmethyl}-1H-pyrrole], the IC50 on Ras farnesyl transferase [1] (setting [5]) is 10 to 100 nM; at Ras farnesyl transferase [2] (setting [6]), 10 to 50 µM; at Ras farnesyl transferase [3] (setting [7]), 20 nM; on Ras farnesyl transferase [4] (setting [8]), 4 nM.
Taken in the same sequence, the figures for `COCCN(C)C(=O)c1cn(Cc2cncn2CC2CCN(C(=O)N3CCc4ccccc4C3)CC2)cc1-c1cccc2ccccc12` [Compound 32, 3-[N-(2-Methoxyethyl)N-methyl]carbamoyl-4-(naphthalen-1-yl)-1-{1-[1-(1,2,3,4-tetrahydroisoquinolin-2-ylcarbonyl)piperidin-4-ylmethyl]-1H-imidazol-5-ylmethyl}-1H-pyrrole] were 10 to 100 nM, 1 to 10 µM, 12 nM and 2 nM.
On the same counts, the results for `COCCN(C)C(=O)c1cn(Cc2cncn2CC2CCN(Cc3ccc(-c4ccccc4)cc3)CC2)cc1-c1cccc2ccccc12` [Compound 33] are 10 to 100 nM, 1 to 10 µM, 10 to 100 nM and 5 nM.
On the same counts, the results for `COCCN(C)C(=O)c1cn(Cc2cncn2CC2CCN(Cc3ccc(Oc4ccccc4)cc3)CC2)cc1-c1cccc2ccccc12` [Compound 34, 3-[N-(2-Methoxyethyl)-N-methyl]carbamoyl-4-(naphthalen-1-yl)-1-{1-[1-(4-phenoxybenzyl)piperidin-4-ylmethyl]-1H-imidazol-5-ylmethyl}-1H-pyrrole] are 10 to 100 nM, 1 to 10 µM, 10 to 100 nM and 11 nM.
Take `COCCN(C)C(=O)c1cn(Cc2cncn2CC2CCN(C(=O)OCC(C)C)CC2)cc1-c1cccc2ccccc12` [Compound 35, 1-[1-(1-Isobutoxycarbonyl-piperidin-4-ylmethyl)-1H-imidazol-5-ylmethyl]-3-[N-(2-methoxyethyl)-N-methyl]carbamoyl-4-(naphthalen-1-yl)-1H-pyrrole]: the IC50 on Ras farnesyl transferase [1] (setting [5]) is 10 to 100 nM; on Ras farnesyl transferase [2] (setting [6]) it was 1 to 10 µM; on Ras farnesyl transferase [3] (setting [7]) it was 10 to 100 nM; on Ras farnesyl transferase [4] (setting [8]), 6 nM.
Take `O=C(c1ccn(Cc2cncn2CC2CCN(C(=O)OCc3ccccc3)CC2)c1)c1cccc2ccccc12` [Compound 36, 1-{1-[1-(Benzyloxycarbonyl)piperidin-4-yl]methyl-1H-imidazol-5-yl}methyl-3-(naphthalen-1-yl)carbonyl-1H-pyrrole]: the IC50 was 10000 nM on Ras farnesyl transferase [1], 50 µM on Ras farnesyl transferase [2], more than 100000 nM at Ras farnesyl transferase [3] and 200 nM on Ras farnesyl transferase [4].
Taken in the same sequence, the figures for `CC(=O)N1CCC(Cn2cncc2Cn2ccc(C(=O)c3cccc4ccccc34)c2)CC1` [Compound 37, 1-[1-(1-Acetylpiperidin-4-yl)methyl-1H-imidazol-5-yl]methyl-3-(naphthalen-1-yl)carbonyl-1H-pyrrole] were 1000 to 10000 nM, 10 to 50 µM, 10000 to 100000 nM and 350 nM.
As to `CN1CCN(C(=O)c2cn(Cc3cncn3CC3CCN(C(=O)OCc4ccccc4)CC3)cc2-c2cccc3ccccc23)CC1` [Compound 38, 1-[1-(1-Benzyloxycarbonylpiperidin-4-yl)methyl-1H-imidazol-5-yl]methyl-3-(4-methylpiperazin-1-yl)carbonyl-4-(naphthalen-1-yl)-1H-pyrrole], the IC50 stood at 12.5 nM at Ras farnesyl transferase [1] (setting [5]), 2.5 µM on Ras farnesyl transferase [2] (setting [6]), 15 nM at Ras farnesyl transferase [3] (setting [7]) and 3.8 nM at Ras farnesyl transferase [4] (setting [8]).
Taken in the same sequence, the figures for `CN(C)CCN(C)C(=O)c1cn(Cc2cncn2CC2CCN(C(=O)OCc3ccccc3)CC2)cc1-c1cccc2ccccc12` [Compound 39, 1-[1-(-Benzyloxycarbonylpiperidin-4-yl)methyl-1H-imidazol-5-yl]methyl-3-{N-[2-(N,N-dimethylamino)ethyl]-N-methyl}carbamoyl-4-(naphthalen-1-yl)-1H-pyrrole] were 1000 nM, 30 to 100 µM, 1500 nM and 300 nM.
On the same counts, the results for `COC(=O)N1CCC(Cn2cncc2Cn2cc(C(=O)N3CCN(C)CC3)c(-c3cccc4ccccc34)c2)CC1` [Compound 40, 1-[1-(1-Methoxycarbonylpiperidin-4-yl)methyl-1H-imidazol-5-yl]methyl-3-(4-methylpiperazin-1-yl)carbonyl-4-(naphthalen-1-yl)1H-pyrrole] are 30 nM, 10 to 50 µM, 4.2 nM and 1.6 nM.
On the same counts, the results for `CN1CCN(C(=O)c2cn(Cc3cncn3CC3CCN(S(C)(=O)=O)CC3)cc2-c2cccc3ccccc23)CC1` [Compound 41, 3-(4-Methylpiperazin-1-yl)carbonyl-1-[1-(1-methylsulfonylpiperidin-4-yl)methyl-1H-imidazol-5-yl]methyl-4-(naphthalen-1-yl)-1H-pyrrole] are 50 nM, 10 to 50 µM, 10 nM and 3 nM.
As to `CC(=O)N1CCC(Cn2cncc2Cn2cc(C(=O)N3CCN(C)CC3)c(-c3cccc4ccccc34)c2)CC1` [Compound 42, 1-[1-(1-Acetylpiperidin-4-yl)methyl-1H-imidazol-5-yl]methyl-3-(4-methylpiperazin-1-yl)carbonyl-4-(naphthalen-1-yl)-1H-pyrrole], the IC50 at Ras farnesyl transferase [1] (setting [5]) is 25 nM; on Ras farnesyl transferase [2] (setting [6]), 10 to 50 µM; at Ras farnesyl transferase [3] (setting [7]), 6 nM; on Ras farnesyl transferase [4] (setting [8]) it was 1.2 nM.
